In PubChem BioAssay AID1963959 (Molecular Pharmacology Branch, DTP, NCI, 2024):

System: T-47D spheroids with HUVEC/MSC, viability
Assay: Anticancer human tumor T-47D cell line growth inhibition [PI3K];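 note: spheroids exposed to agents for seven days before reading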;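 for viability, T/C: percent of DMSO vehicle control luminescence so 100% = untreated growth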
Details: for IC50: curve of first compound; for viability, T/C: stronger effect = lower value
Procedure, shortened: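 Tumor cells grown as multi-cell spheroids with HUVEC endothelial cells and MSC fibroblast-like stroma were treated with targeted agents combined with inavolisib, alpelisib, duvelisib or copanlisib. Doses fell in half-log steps from near clinical Cmax, else from 10 microM. Viability was measured.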

[1] = second compound 0.0316 µM, first compound 0.0316 µM
[2] = second compound 0.0316 µM, first compound 0.1 µM
[3] = second compound 0.0316 µM, first compound 0.316 µM
[4] = second compound 0.0316 µM, first compound 1 µM
[5] = second compound 0.0316 µM, first compound 3.16 µM
[6] = second compound 0.0316 µM, first compound 10 µM
[7] = second compound 0.1 µM, first compound 0.0316 µM
[8] = second compound 0.1 µM, first compound 0.1 µM
[9] = second compound 0.1 µM, first compound 0.316 µM
[10] = second compound 0.1 µM, first compound 1 µM
[11] = second compound 0.1 µM, first compound 3.16 µM
[12] = second compound 0.1 µM, first compound 10 µM
[13] = second compound 0.316 µM, first compound 0.0316 µM
[14] = second compound 0.316 µM, first compound 0.1 µM
[15] = second compound 0.316 µM, first compound 0.316 µM
[16] = second compound 0.316 µM, first compound 1 µM
[17] = second compound 0.316 µM, first compound 3.16 µM
[18] = second compound 0.316 µM, first compound 10 µM
[19] = second compound 1 µM, first compound 0.0316 µM
[20] = second compound 1 µM, first compound 0.1 µM
[21] = second compound 1 µM, first compound 0.316 µM
[22] = second compound 1 µM, first compound 1 µM
[23] = second compound 1 µM, first compound 3.16 µM
[24] = second compound 1 µM, first compound 10 µM
[25] = second compound 3.16 µM, first compound 0.0316 µM
[26] = second compound 3.16 µM, first compound 0.1 µM
[27] = second compound 3.16 µM, first compound 0.316 µM
[28] = second compound 3.16 µM, first compound 1 µM
[29] = second compound 3.16 µM, first compound 3.16 µM
[30] = second compound 3.16 µM, first compound 10 µM
[31] = second compound 10 µM, first compound 0.0316 µM
[32] = second compound 10 µM, first compound 0.1 µM
[33] = second compound 10 µM, first compound 0.316 µM
[34] = second compound 10 µM, first compound 1 µM
[35] = second compound 10 µM, first compound 3.16 µM
[36] = second compound 10 µM, first compound 10 µM

Which IC50 (second compound 0.0316 µM) does the source give for `C#Cc1c(F)ccc2cc(O)cc(-c3ncc4c(N5CC6CCC(C5)N6)nc(OCC56CCCN5CC(F)C6)nc4c3F)c12` (stereo unspecified) + Cc1nc(NC(=O)N2CCCC2C(N)=O)sc1-c1ccnc(C(C)(C)C(F)(F)F)c1 here?
The IC50 was > 10 µM.

And the IC50 (second compound 0.1 µM)?
The IC50 was > 10 µM.

And the IC50 (second compound 0.316 µM)?
The IC50 was > 10 µM.

And the IC50 (second compound 1 µM)?
Its IC50 is > 10 µM.

What about the IC50 (second compound 3.16 µM) of the same molecule?
The IC50 was > 10 µM.

And the IC50 (second compound 10 µM)?
The IC50 was < 0.0316 µM.

What about the viability, T/C [1] of the same molecule?
The viability, T/C was 94.8%.

And the viability, T/C [2]?
Its viability, T/C is 91.4%.

What about the viability, T/C [3] of the same molecule?
Its viability, T/C is 99%.

And the viability, T/C [4]?
Its viability, T/C is 87.8%.

And the viability, T/C [5]?
Its viability, T/C is 99.6%.

And the viability, T/C [6]?
Its viability, T/C is 74.8%.

What about the viability, T/C [7] of the same molecule?
Its viability, T/C is 98.8%.

What about the viability, T/C [8] of the same molecule?
Its viability, T/C is 72.2%.

And the viability, T/C [9]?
The viability, T/C was 73.4%.

What about the viability, T/C [10] of the same molecule?
Its viability, T/C is 80.1%.

And the viability, T/C [11]?
Its viability, T/C is 103%.

And the viability, T/C [12]?
The viability, T/C was 89.4%.

And the viability, T/C [13]?
The viability, T/C was 90.5%.

What about the viability, T/C [14] of the same molecule?
Its viability, T/C is 71.2%.

What about the viability, T/C [15] of the same molecule?
The viability, T/C was 80.3%.

And the viability, T/C [16]?
Its viability, T/C is 97.8%.

And the viability, T/C [17]?
The viability, T/C was 86%.

What about the viability, T/C [18] of the same molecule?
The viability, T/C was 84.5%.

And the viability, T/C [19]?
Its viability, T/C is 74.2%.

What about the viability, T/C [20] of the same molecule?
The viability, T/C was 84.7%.

What about the viability, T/C [21] of the same molecule?
Its viability, T/C is 69.5%.

And the viability, T/C [22]?
The viability, T/C was 82.7%.

And the viability, T/C [23]?
The viability, T/C was 82.8%.

What about the viability, T/C [24] of the same molecule?
Its viability, T/C is 77.8%.

What about the viability, T/C [25] of the same molecule?
The viability, T/C was 63.4%.

What about the viability, T/C [26] of the same molecule?
Its viability, T/C is 65.7%.

And the viability, T/C [27]?
Its viability, T/C is 61.1%.

What about the viability, T/C [28] of the same molecule?
Its viability, T/C is 54%.

And the viability, T/C [29]?
Its viability, T/C is 54.2%.

What about the viability, T/C [30] of the same molecule?
The viability, T/C was 60.8%.

And the viability, T/C [31]?
Its viability, T/C is 38.4%.

And the viability, T/C [32]?
The viability, T/C was 40.4%.

And the viability, T/C [33]?
Its viability, T/C is 40.8%.

What about the viability, T/C [34] of the same molecule?
The viability, T/C was 31.7%.

And the viability, T/C [35]?
Its viability, T/C is 33%.

What about the viability, T/C [36] of the same molecule?
The viability, T/C was 40.1%.

For `CC(Cn1ccc(-c2ccc(C#N)c(Cl)c2)n1)NC(=O)c1cc(C(C)O)[nH]n1` (stereo unspecified) + Cc1nc(NC(=O)N2CCCC2C(N)=O)sc1-c1ccnc(C(C)(C)C(F)(F)F)c1, which IC50 (second compound 0.0316 µM) is on record?
Its IC50 is > 10 µM.

And the IC50 (second compound 0.1 µM)?
Its IC50 is > 10 µM.

What about the IC50 (second compound 0.316 µM) of the same molecule?
The IC50 was > 10 µM.

And the IC50 (second compound 1 µM)?
The IC50 was > 10 µM.

And the IC50 (second compound 3.16 µM)?
The IC50 was > 10 µM.

What about the IC50 (second compound 10 µM) of the same molecule?
Its IC50 is < 0.0316 µM.

What about the viability, T/C [1] of the same molecule?
Its viability, T/C is 97%.

What about the viability, T/C [2] of the same molecule?
The viability, T/C was 103%.

What about the viability, T/C [3] of the same molecule?
Its viability, T/C is 118%.

What about the viability, T/C [4] of the same molecule?
Its viability, T/C is 84%.

And the viability, T/C [5]?
The viability, T/C was 88.8%.

And the viability, T/C [6]?
Its viability, T/C is 63.6%.

What about the viability, T/C [7] of the same molecule?
Its viability, T/C is 109%.

What about the viability, T/C [8] of the same molecule?
The viability, T/C was 88.2%.

What about the viability, T/C [9] of the same molecule?
The viability, T/C was 91.8%.

And the viability, T/C [10]?
Its viability, T/C is 90.9%.

What about the viability, T/C [11] of the same molecule?
Its viability, T/C is 79.5%.

And the viability, T/C [12]?
Its viability, T/C is 67.9%.

What about the viability, T/C [13] of the same molecule?
Its viability, T/C is 100%.

And the viability, T/C [14]?
The viability, T/C was 101%.

And the viability, T/C [15]?
The viability, T/C was 93.8%.

And the viability, T/C [16]?
The viability, T/C was 96.8%.

And the viability, T/C [17]?
The viability, T/C was 85.7%.

And the viability, T/C [18]?
Its viability, T/C is 66.6%.

What about the viability, T/C [19] of the same molecule?
Its viability, T/C is 95.5%.

What about the viability, T/C [20] of the same molecule?
The viability, T/C was 95.8%.

And the viability, T/C [21]?
The viability, T/C was 84.4%.

And the viability, T/C [22]?
Its viability, T/C is 87.6%.

And the viability, T/C [23]?
The viability, T/C was 85%.

And the viability, T/C [24]?
The viability, T/C was 63.2%.

And the viability, T/C [25]?
The viability, T/C was 82.8%.

And the viability, T/C [26]?
Its viability, T/C is 73.4%.

What about the viability, T/C [27] of the same molecule?
Its viability, T/C is 61%.

What about the viability, T/C [28] of the same molecule?
Its viability, T/C is 65.8%.

And the viability, T/C [29]?
The viability, T/C was 63.1%.

What about the viability, T/C [30] of the same molecule?
Its viability, T/C is 50.4%.

What about the viability, T/C [31] of the same molecule?
Its viability, T/C is 36%.

What about the viability, T/C [32] of the same molecule?
The viability, T/C was 42.3%.

And the viability, T/C [33]?
The viability, T/C was 44.2%.

What about the viability, T/C [34] of the same molecule?
Its viability, T/C is 45.5%.

What about the viability, T/C [35] of the same molecule?
The viability, T/C was 36.8%.

And the viability, T/C [36]?
Its viability, T/C is 37.9%.

How did the IC50 (second compound 0.0316 µM) turn out when `CC1(C)CCC(Nc2ncc(C(F)(F)F)c(-c3c[nH]c4c(P(C)(C)=O)c(C#N)ccc34)n2)CN1` (stereo unspecified) + Cc1nc(NC(=O)N2CCCC2C(N)=O)sc1-c1ccnc(C(C)(C)C(F)(F)F)c1 was run?
The IC50 was 8.08 µM.

What about the IC50 (second compound 0.1 µM) of the same molecule?
The IC50 was > 10 µM.

What about the IC50 (second compound 0.316 µM) of the same molecule?
Its IC50 is 4.92 µM.

And the IC50 (second compound 1 µM)?
Its IC50 is 3.39 µM.

And the IC50 (second compound 3.16 µM)?
The IC50 was < 0.0316 µM.

What about the IC50 (second compound 10 µM) of the same molecule?
The IC50 was < 0.0316 µM.

What about the viability, T/C [1] of the same molecule?
Its viability, T/C is 73.6%.

And the viability, T/C [2]?
The viability, T/C was 64.5%.

What about the viability, T/C [3] of the same molecule?
Its viability, T/C is 73.7%.

And the viability, T/C [4]?
The viability, T/C was 72.4%.

What about the viability, T/C [5] of the same molecule?
Its viability, T/C is 72.2%.

And the viability, T/C [6]?
Its viability, T/C is 45.1%.

What about the viability, T/C [7] of the same molecule?
The viability, T/C was 68.7%.

What about the viability, T/C [8] of the same molecule?
The viability, T/C was 65.8%.

And the viability, T/C [9]?
Its viability, T/C is 65.6%.

What about the viability, T/C [10] of the same molecule?
Its viability, T/C is 64.6%.

And the viability, T/C [11]?
Its viability, T/C is 70.9%.

What about the viability, T/C [12] of the same molecule?
Its viability, T/C is 42.9%.

What about the viability, T/C [13] of the same molecule?
Its viability, T/C is 67%.

And the viability, T/C [14]?
The viability, T/C was 57.7%.

And the viability, T/C [15]?
Its viability, T/C is 55%.

What about the viability, T/C [16] of the same molecule?
The viability, T/C was 55.7%.

And the viability, T/C [17]?
Its viability, T/C is 59.2%.

What about the viability, T/C [18] of the same molecule?
Its viability, T/C is 35.9%.

And the viability, T/C [19]?
Its viability, T/C is 56.7%.

What about the viability, T/C [20] of the same molecule?
Its viability, T/C is 58.1%.

What about the viability, T/C [21] of the same molecule?
The viability, T/C was 45.2%.

And the viability, T/C [22]?
Its viability, T/C is 44.2%.

And the viability, T/C [23]?
Its viability, T/C is 54.4%.

What about the viability, T/C [24] of the same molecule?
Its viability, T/C is 22.7%.

And the viability, T/C [25]?
Its viability, T/C is 47.3%.

And the viability, T/C [26]?
Its viability, T/C is 41.3%.

What about the viability, T/C [27] of the same molecule?
Its viability, T/C is 42.3%.

And the viability, T/C [28]?
The viability, T/C was 38.6%.

What about the viability, T/C [29] of the same molecule?
The viability, T/C was 40.1%.

And the viability, T/C [30]?
Its viability, T/C is 8.96%.

What about the viability, T/C [31] of the same molecule?
Its viability, T/C is 30.3%.

What about the viability, T/C [32] of the same molecule?
Its viability, T/C is 29.4%.

And the viability, T/C [33]?
Its viability, T/C is 26.6%.

And the viability, T/C [34]?
The viability, T/C was 27.5%.

And the viability, T/C [35]?
The viability, T/C was 20.8%.

What about the viability, T/C [36] of the same molecule?
Its viability, T/C is 3.07%.
